Values joined by “and” are separate entries in the source; they are usually repeats but may differ in a detail not shown here. Equal entries are not always repeated.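 1) Cells in 96-well plates. 2) Compound, 48 h, 5 concentrations. 3) Linear interpolation between surrounding doses. 4) Unreached endpoint = highest concentration. Here, GI50 denotes the concentration required for 50% inhibition of growth. TGI marks complete inhibition of growth.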

The test relates to MDA-MB-468 breast. Nature of the test: inhibition of tumour cell growth, NCI panel, 48 h.

Consider `COc1ccc(Cn2cc3c(c2-c2cc(OC)c(OC)c(OC)c2)CCc2cnoc2-3)cc1[N+](=O)[O-]`, for which the GI50 is 376 nM and the TGI came to 4220 nM.
On to `COc1ccccc1S(=O)(=O)Nc1ccc2c(c1)CN(C)C(=O)N2`, for which the GI50 was 2400 nM and 1440 nM; the TGI was > 56100 nM and 50300 nM.
Turning to `CCOC(=O)c1cc2c(n1Cc1ccccc1)-c1oncc1CC2`, the GI50 was 2190 nM and the TGI came out at 7760 nM.
The like results for `CC(=O)OCC1O[C@@H]([S-])C(OC(C)=O)[C@H](OC(C)=O)[C@@H]1OC(C)=O.[Au+].c1ccc(CN2[CH-]N(Cc3ccccc3)C(c3ccccc3)=C2c2ccccc2)cc1` were, in that order, 1540 nM and 3260 nM.
The like results for `CCCSC1=NC2C(N(CC)C(=O)N2CC)N1/N=C/C=C/c1ccccc1[N+](=O)[O-]` (centres undefined) were, in that order, 3060 nM and > 100000 nM.
The like results for `CC1=C[S+](c2ccccc2)c2cccc3cc4ccccc4c1c23` (centres undefined) were, in that order, 78.5 nM and 766 nM.
Take `CCCCCc1ccc(S(=O)(=O)N(C(C)=O)c2cccc(-c3csc(N(CCN4CCN(C)CC4)C(C)=O)n3)c2)cc1`: the GI50 was 735 nM and the TGI was 2710 nM.
The like results for `Nc1c(C(=O)Nc2ccccc2F)sc2nc3c(cc12)C(=O)CCC3` were, in that order, 247 nM and 956 nM.
The corresponding values for `CS(=O)(=O)CCNCc1ccc(-c2ccc3ncnc(Nc4ccc(OCc5ccccc5)c(Cl)c4)c3c2)o1` are 10.7 nM and 196 nM.
On to `CCCCCCCC(=O)SCC/C=C/[C@@H]1CC(=O)NCc2nc(co2)C2=N[C@@](C)(CS2)C(=O)N[C@@H](C(C)C)C(=O)O1`, for which the GI50 was 29.1 nM and the TGI came out at 23500 nM.
The like results for `C#Cc1cccc(Nc2nc3ccc([N+](=O)[O-])cc3nc2Nc2cccc(C#C)c2)c1` were, in that order, 174 nM and 499 nM.
The like results for `CNCCCNc1nc2ccccc2c2c(=O)c3cc(Cl)ccc3sc12` were, in that order, 1260 nM and 2830 nM.
The corresponding values for `C/C(Cc1ccc(Cl)cc1)=C(/c1ccc(Cl)cc1)c1ccc(OCCN(C)C)cc1` are 2970 nM and 7760 nM.
For `C#CCOc1cccc(Nc2ncnc3ccc(NC(=O)CCl)cc23)c1`, the GI50 is 3160 nM and the TGI is 27200 nM.
The like results for `COc1ccc(C(=O)c2cc3c(N)c(C(=O)Nc4cccc(Cl)c4C)sc3nc2C)cc1` were, in that order, 70.7 nM and 1220 nM.
The corresponding values for `CC(=O)[O][Hg][c]1ccccc1` are 154 nM and 341 nM.
The corresponding values for `CCN1C(=O)N(c2ccccc2)C2NN=c3s/c(=C4\C(=O)N(C(C)C)c5ccccc54)c(=O)n3C21` (centres undefined) are 817 nM and 4180 nM.
`COc1cnc2c(c1)C(=O)c1c-2n(CCCN2CCCC2)c(=O)c2cc(F)ccc12`: the GI50 was 175 nM and the TGI was found to be 517 nM.
The corresponding values for `N[C@@H]1CCCN(c2c(/C=C3\SC(=O)NC3=O)cccc2-c2ccccc2)C1` are 9540 nM and 24500 nM.
The corresponding values for `O=[N+]([O-])c1ccc2ncccc2c1Cl` are 1870 nM and 4810 nM.
The like results for `O=C(O)C1(Cc2cccc(Nc3nccs3)n2)CCC(Oc2cccc(Cl)c2F)CC1` (centres undefined) were, in that order, 526 nM and 34600 nM.
Consider `COc1ccc(-c2cc(-c3cc(OC)c(OC)c(OC)c3)c(C#N)c(N3CCOCC3)n2)cc1O`, for which the GI50 is 13400 nM and the TGI is > 100000 nM.
The corresponding values for `COc1ccc(-c2nc3cc(Cl)c(Cl)cc3n2CC(=O)N=Nc2c(O)[nH]c3ccc(Cl)cc23)cc1` are 1700 nM and 3400 nM.
The like results for `O=C(OCc1ccc2c(Cl)cc(Cl)c(O)c2n1)c1cc2ccccc2[nH]1` were, in that order, 238 nM and 626 nM.
On to `O=C1CCc2c(sc3[nH]c(=S)n(Cc4ccccc4)c(=O)c23)C1`, for which the GI50 was 2950 nM and the TGI came out at 9310 nM.
The like results for `CCC1CCc2nc3sc(C(=O)Nc4ccccc4C)c(N)c3cc2C1` (centres undefined) were, in that order, 244 nM and 742 nM.
The corresponding values for `COc1ccc(C(=O)COc2cccc(/C=C3\CSc4ccc(C)cc4C3=O)c2)cc1` are 4840 nM and 36900 nM.
The like results for `C=C1C(=O)O[C@H]2[C@H]1CC/C(COC(=O)c1ccc(C#N)cc1)=C\CC[C@@]1(C)O[C@@H]21` were, in that order, 1030 nM and 3130 nM.
On to `CCCCn1sc(=O)n(Cc2ccc(CNC(=O)OCc3ccc4c(Br)cc(Br)c(O)c4n3)cc2)c1=O`, for which the GI50 is 388 nM and the TGI was > 100000 nM.
On to `c1ccc(Cn2c(-c3ccc(OC[C@H](C4CCNCC4)n4c(-c5ccccc5)nc5ccccc54)cc3)nc3ccccc32)cc1`, for which the GI50 was 1120 nM and the TGI is 2460 nM.
The like results for `CCCCCc1ccc(S(=O)(=O)Nc2cc(-c3csc(NC(=O)CN4CCN(C)CC4)n3)ccc2OC)cc1` were, in that order, 917 nM and 2110 nM.
With `COc1cc2nc3cc([N+](=O)[O-])ccc3c(NCCCNCC(C)(C)O)c2cc1OC`, the GI50 was 230 nM and the TGI is 570 nM.
The like results for `CCOC(=O)Nc1ccc(-c2nc(-c3cccc(OC)c3)c(-c3ccnc(Br)c3)[nH]2)cc1` were, in that order, 1670 nM and 4910 nM.
The corresponding values for `CN(CCCl)c1ccc(/C=C/C2=[N+](C)c3ccccc3C2(C)C)cc1` are 353 nM and 1690 nM.
The corresponding values for `Cc1ccc(S(=O)(=O)Cc2nc(-c3ccc(C(=O)NCc4cccnc4)cc3)oc2C)cc1` are 4740 nM and > 100000 nM.
Consider `O=C(O)c1ccc2c(c1)nc(Nc1cccc(Cl)c1)c1ccncc12`, for which the GI50 was 1050 nM and 1670 nM; the TGI is 4840 nM and 8970 nM.
Regarding `COc1cccc(C2C3=C(COC3=O)Oc3cc4c(cc32)OCO4)c1` (centres undefined), the GI50 is 81.7 nM and the TGI is > 100000 nM.
The like results for `Cc1nc2n(c(=O)c1CCN1CCC(c3noc4cc(F)ccc34)CC1)CCCC2` were, in that order, 34000 nM and > 50000 nM.
As for `O=C(CCCCCCSc1nc(-c2ccc(Cl)cc2)cc(-c2ccc(Cl)cc2)n1)NO`, the GI50 is 1620 nM and the TGI is 6380 nM.
With `Cc1c(NC(=O)OC[C@@H]2COCCN2)cn2ncnc(Nc3ccc4c(cnn4Cc4cccc(F)c4)c3)c12`, the GI50 is 120 nM and 45.4 nM; the TGI is 1120 nM and 329 nM.
With `C/C(=C\c1ccc(Cl)c(Cl)c1)[N+](=O)[O-]`, the GI50 is 1550 nM and the TGI was 3020 nM.
The like results for `CN(C[C@@H]1COCCO1)S(=O)(=O)Nc1ccc2ccc3ncc(-c4cnn(C)c4)cc3c(=O)c2c1` were, in that order, 7130 nM and > 100000 nM.
